Measurements published in PubChem BioAssay AID248 (DTP/NCI, 2004).
Where “and” joins values, the source holds several entries; their conditions need not be identical. Identical values can stand only once. Inconclusive results and toxic doses are left out.

System: L1210 leukemia ip in BDF1 mice, survival T/C
Experiment: NCI In Vivo Anticancer Drug Screen. Data for tumor model L1210 Leukemia (intraperitoneal) in B6D2F1 (BDF1) mice
Conditions: endpoint: mean survival time, higher = longer survival
Procedure, shortened: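 Ratio derived from survival: compound-dosed mice over vehicle-dosed mice, all bearing a transplantable tumor.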

[1] = dose: 100.0 mg/kg/injection, schedule: Q01DX001 (ip), vehicle: saline
[2] = dose: 100.0 mg/kg/injection, schedule: Q04DX003 (ip), vehicle: saline
[3] = dose: 200.0 mg/kg/injection, schedule: Q01DX001 (ip), vehicle: saline
[4] = dose: 200.0 mg/kg/injection, schedule: Q04DX003 (ip), vehicle: saline
[5] = dose: 400.0 mg/kg/injection, schedule: Q01DX001 (ip), vehicle: saline
[6] = dose: 100.0 mg/kg/injection, schedule: Q04DX002 (ip), vehicle: Klucel (hydroxypropylcellulose) (HPC)
[7] = dose: 200.0 mg/kg/injection, schedule: Q04DX002 (ip), vehicle: Klucel (hydroxypropylcellulose) (HPC)
[8] = dose: 100.0 mg/kg/injection, schedule: Q01DX009 (ip), vehicle: saline with Tween-80
[9] = dose: 200.0 mg/kg/injection, schedule: Q01DX009 (ip), vehicle: saline with Tween-80
[10] = dose: 100.0 mg/kg/injection, schedule: Q04DX003 (ip), vehicle: Klucel (hydroxypropylcellulose) (HPC)
[11] = dose: 200.0 mg/kg/injection, schedule: Q04DX003 (ip), vehicle: Klucel (hydroxypropylcellulose) (HPC)
[12] = dose: 400.0 mg/kg/injection, schedule: Q04DX003 (ip), vehicle: Klucel (hydroxypropylcellulose) (HPC)

SMILES: CCC(CC)NCC(C)OC(=O)c1ccc([N+](=O)[O-])cc1 (stereo not given)
- T/C (dose: 75.0 mg/kg/injection, schedule: Q01DX001 (ip), vehicle: carboxymethylcellulose (CMC)): 96 % of control
- T/C (dose: 150.0 mg/kg/injection, schedule: Q01DX001 (ip), vehicle: carboxymethylcellulose (CMC)): 105 % of control
- T/C (dose: 300.0 mg/kg/injection, schedule: Q01DX001 (ip), vehicle: carboxymethylcellulose (CMC)): 97 % of control

SMILES: NC(=S)Nc1c(Cl)cc(Cl)cc1Cl
- T/C (dose: 25.0 mg/kg/injection, schedule: Q01DX009 (ip), vehicle: Klucel (hydroxypropylcellulose) (HPC)): 94 % of control
- T/C (dose: 50.0 mg/kg/injection, schedule: Q01DX009 (ip), vehicle: Klucel (hydroxypropylcellulose) (HPC)): 108 % of control
- T/C (dose: 100.0 mg/kg/injection, schedule: Q01DX009 (ip), vehicle: Klucel (hydroxypropylcellulose) (HPC)): 94 % of control and 107 % of control

SMILES: CC(=O)OCC1(C[N+](C)(C)C)CCC1
- T/C [1]: 103 % of control
- T/C [2]: 95 % of control
- T/C [3]: 97 % of control
- T/C [4]: 94 % of control
- T/C [5]: 110 % of control

SMILES: Cc1c([N+](=O)[O-])sc2ccccc12
- T/C [1]: 97 % of control
- T/C [3]: 97 % of control
- T/C [5]: 90 % of control

SMILES: O=c1[nH]cnc2c1ncn2Cc1cccc(Cl)c1
- T/C (dose: 50.0 mg/kg/injection, schedule: Q04DX002 (ip), vehicle: Klucel (hydroxypropylcellulose) (HPC)): 86 % of control
- T/C [6]: 94 % of control
- T/C [7]: 91 % of control

SMILES: O=C1CCCCCCCCCC/C(=N/O)CCCO1
- T/C (dose: 100.0 mg/kg/injection, schedule: Q01DX001 (ip), vehicle: saline with Tween-80): 100 % of control
- T/C (dose: 200.0 mg/kg/injection, schedule: Q01DX001 (ip), vehicle: saline with Tween-80): 92 % of control
- T/C (dose: 400.0 mg/kg/injection, schedule: Q01DX001 (ip), vehicle: saline with Tween-80): 89 % of control

SMILES: C=CC[Se]c1ncnc2c1c(C#N)cn2C1OC(CO)C(O)C1O (stereo not given)
- T/C (dose: 6.25 mg/kg/injection, schedule: Q01DX009 (ip), vehicle: saline): 103 % of control
- T/C (dose: 12.5 mg/kg/injection, schedule: Q01DX009 (ip), vehicle: saline): 107 % of control
- T/C (dose: 25.0 mg/kg/injection, schedule: Q01DX009 (ip), vehicle: saline): 92 % of control

SMILES: CCOC(=O)CC(C(=O)OCC)C(C(=O)OCC)C(=O)OCC (stereo not given)
- T/C (dose: 50.0 mg/kg/injection, schedule: Q01DX009 (ip), vehicle: saline with Tween-80): 111 % of control
- T/C [8]: 101 % of control
- T/C [9]: 101 % of control

SMILES: C/C=C\c1ccc(OC(=O)c2ccc([N+](=O)[O-])cc2)c(OC)c1
- T/C (dose: 100.0 mg/kg/injection, schedule: Q01DX001 (ip), vehicle: other): 97 % of control
- T/C (dose: 200.0 mg/kg/injection, schedule: Q01DX001 (ip), vehicle: other): 106 % of control
- T/C (dose: 400.0 mg/kg/injection, schedule: Q01DX001 (ip), vehicle: other): 94 % of control

SMILES: Cc1ccc(S(=O)(=O)OC2CC(C(=O)O)N(S(=O)(=O)c3ccc(C)cc3)C2)cc1 (stereo not given)
- T/C [8]: 104 % of control
- T/C (dose: 100.0 mg/kg/injection, schedule: Q04DX003 (ip), vehicle: saline with Tween-80): 98 % of control and 92 % of control
- T/C [9]: 95 % of control
- T/C (dose: 200.0 mg/kg/injection, schedule: Q04DX003 (ip), vehicle: saline with Tween-80): 97 % of control and 101 % of control
- T/C (dose: 400.0 mg/kg/injection, schedule: Q04DX003 (ip), vehicle: saline with Tween-80): 96 % of control and 107 % of control

SMILES: Cc1ccc(N(C)CC#CCOc2ccc(Br)cc2)cc1
- T/C [6]: 105 % of control
- T/C [7]: 99 % of control
- T/C (dose: 400.0 mg/kg/injection, schedule: Q04DX002 (ip), vehicle: Klucel (hydroxypropylcellulose) (HPC)): 99 % of control

SMILES: CCCCc1cc(O)c2c(c1O)C(=O)c1ccccc1C2=O
- T/C (dose: 100.0 mg/kg/injection, schedule: Q01DX001 (ip), vehicle: saline sonified): 91 % of control
- T/C (dose: 100.0 mg/kg/injection, schedule: Q01DX009 (ip), vehicle: saline sonified): 97 % of control
- T/C (dose: 200.0 mg/kg/injection, schedule: Q01DX001 (ip), vehicle: saline sonified): 86 % of control
- T/C (dose: 200.0 mg/kg/injection, schedule: Q01DX009 (ip), vehicle: saline sonified): 102 % of control
- T/C (dose: 400.0 mg/kg/injection, schedule: Q01DX001 (ip), vehicle: saline sonified): 94 % of control
- T/C (dose: 400.0 mg/kg/injection, schedule: Q01DX009 (ip), vehicle: saline sonified): 96 % of control

SMILES: CCc1nc(N)nc(N)c1-c1ccc([N+](=O)[O-])cc1O
- T/C [10]: 92 % of control
- T/C [11]: 93 % of control
- T/C [12]: 89 % of control

SMILES: Cn1c(N)c(C(=O)CCCc2ccc(N(CCCl)CCCl)cc2)c(=O)n(C)c1=O
- T/C (dose: 50.0 mg/kg/injection, schedule: Q01DX001 (ip), vehicle: carboxymethylcellulose (CMC)): 102 % of control
- T/C (dose: 100.0 mg/kg/injection, schedule: Q01DX001 (ip), vehicle: carboxymethylcellulose (CMC)): 107 % of control
- T/C (dose: 200.0 mg/kg/injection, schedule: Q01DX001 (ip), vehicle: carboxymethylcellulose (CMC)): 105 % of control
- T/C (dose: 400.0 mg/kg/injection, schedule: Q01DX001 (ip), vehicle: carboxymethylcellulose (CMC)): 102 % of control

SMILES: COc1ccc(C(=O)N(C)c2ccccc2)cc1
- T/C [10]: 94 % of control
- T/C [11]: 89 % of control
- T/C [12]: 93 % of control

SMILES: [N-]=[N+]=C1C(=O)NC(=O)N2C3CC(O)C(COC12)O3 (stereo not given)
- T/C (dose: 32.0 mg/kg/injection, schedule: Q01DX Z (oral), vehicle: saline): 110 % of control
- T/C (dose: 63.0 mg/kg/injection, schedule: Q01DX Z (oral), vehicle: saline): 105 % of control
- T/C (dose: 100.0 mg/kg/injection, schedule: Q01DX009 (ip), vehicle: saline): 111 % of control
- T/C [2]: 102 % of control
- T/C (dose: 125.0 mg/kg/injection, schedule: Q01DX Z (oral), vehicle: saline): 101 % of control
- T/C (dose: 133.0 mg/kg/injection, schedule: Q01DX006 (iv), vehicle: saline): 106 % of control
- T/C (dose: 133.0 mg/kg/injection, schedule: Q01DX Z (ip), vehicle: carboxymethylcellulose (CMC)): 104 % of control
- T/C (dose: 133.0 mg/kg/injection, schedule: Q01DX Z (ip), vehicle: saline): 113 % of control and 119 % of control
- T/C (dose: 200.0 mg/kg/injection, schedule: Q01DX006 (iv), vehicle: saline): 110 % of control
- T/C (dose: 200.0 mg/kg/injection, schedule: Q01DX009 (ip), vehicle: saline): 114 % of control
- T/C (dose: 200.0 mg/kg/injection, schedule: Q01DX Z (ip), vehicle: carboxymethylcellulose (CMC)): 105 % of control
- T/C (dose: 200.0 mg/kg/injection, schedule: Q01DX Z (ip), vehicle: saline): 117 % of control
- T/C [4]: 107 % of control
- T/C (dose: 250.0 mg/kg/injection, schedule: Q01DX Z (oral), vehicle: carboxymethylcellulose (CMC)): 108 % of control
- T/C (dose: 250.0 mg/kg/injection, schedule: Q01DX Z (oral), vehicle: saline): 105 % of control and 107 % of control
- T/C (dose: 300.0 mg/kg/injection, schedule: Q01DX006 (iv), vehicle: saline): 118 % of control
- T/C (dose: 300.0 mg/kg/injection, schedule: Q01DX Z (ip), vehicle: saline): 150 % of control
- T/C (dose: 400.0 mg/kg/injection, schedule: Q04DX003 (ip), vehicle: saline): 107 % of control
- T/C (dose: 450.0 mg/kg/injection, schedule: Q01DX006 (iv), vehicle: saline): 116 % of control
- T/C (dose: 500.0 mg/kg/injection, schedule: Q01DX Z (oral), vehicle: carboxymethylcellulose (CMC)): 98 % of control
- T/C (dose: 500.0 mg/kg/injection, schedule: Q01DX Z (oral), vehicle: saline): 107 % of control and 117 % of control
- T/C (dose: 675.0 mg/kg/injection, schedule: Q01DX006 (iv), vehicle: saline): 112 % of control
- T/C (dose: 675.0 mg/kg/injection, schedule: Q01DX Z (ip), vehicle: saline): 111 % of control
- T/C (dose: 800.0 mg/kg/injection, schedule: Q01DX006 (iv), vehicle: saline): 102 % of control
- T/C (dose: 1000.0 mg/kg/injection, schedule: Q01DX006 (iv), vehicle: saline): 102 % of control
- T/C (dose: 1000.0 mg/kg/injection, schedule: Q01DX Z (oral), vehicle: carboxymethylcellulose (CMC)): 100 % of control
- T/C (dose: 2000.0 mg/kg/injection, schedule: Q01DX Z (oral), vehicle: carboxymethylcellulose (CMC)): 107 % of control
